From the supplement of paper PMC10331698
± gives the standard deviation of the averaged measurements.

How the values were obtained:
Experiment in all cases: level (log10 ratio to DMSO vehicle control); higher = higher biomarker level / cell amount than vehicle control
[1] = compound: O=S(=O)(O)CCC(F)(F)C(F)(F)C(F)(F)C(F)(F)F [4:2 Fluorotelomer sulfonic acid]; settings: in DMSO
Protocol: (§1)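 BioMAP Diversity Plus panel of 12 human primary cell co-culture systems (3C, 4H, LPS, SAg, BT, BF4T, BE3C, CASM3C, HDF3CGF, KF3CT, MyoF, Mphg). Compounds were added 1 h before stimulation and left for 24 h (MyoF 48 h; BT 72 h for soluble read-outs or 6 d for IgG). Biomarkers were read by ELISA, cytotoxicity by SRB, PBMC viability and proliferation by Alamar Blue. Each well value was divided by the mean of 8 DMSO control wells on the same plate and log10 transformed; duplicate blinded samples were tested at 4 concentrations.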

[2] = compound: C=CC(=O)OCC(F)(F)C(F)(F)C(F)(F)C(F)(F)COC(=O)C=C [1H,1H,6H,6H-Perfluorohexane-1,6-diol diacrylate]; settings: 6700 nM; in DMSO
Protocol: as §1

[3] = compound: C=CC(=O)OCCC(F)(F)C(F)(F)C(F)(F)C(F)(F)C(F)(F)C(F)(F)C(F)(F)C(F)(F)F [8:2 Fluorotelomer acrylate]; settings: in DMSO
Protocol: as §1

[4] = compound: OCCCCC(F)(F)C(F)(F)C(F)(F)C(F)(F)F [4:4 Fluorotelomer alcohol]; settings: in DMSO
Protocol: as §1

[5] = compound: OCC(F)(F)C(F)(F)C(F)(F)C(F)(F)C(F)(F)C(F)(F)F [6:1 Fluorotelomer alcohol]; settings: in DMSO
Protocol: as §1

[6] = compound: Cc1ccc(S(=O)(=O)OCC(F)(F)C(F)(F)C(F)(F)C(F)(F)C(F)(F)C(F)F)cc1 [1H,1H,7H-Perfluoroheptyl 4-methylbenzenesulfonate]; settings: in DMSO
Protocol: as §1

[7] = compound: O=C(O)C(F)(F)C(F)(F)C(F)(F)C(F)(F)C(F)(F)C(F)(F)C(F)(F)F [Ammonium perfluorooctanoate]; settings: in DMSO
Protocol: as §1

Test System | level (log10) ([1]; 6700 nM) | level (log10) ([1]; 20000 nM) | level (log10) ([1]; 60000 nM) | level (log10) [2] | level (log10) ([3]; 6700 nM) | level (log10) ([3]; 20000 nM) | level (log10) ([3]; 60000 nM) | level (log10) ([4]; 6700 nM) | level (log10) ([4]; 20000 nM) | level (log10) ([4]; 60000 nM) | level (log10) ([5]; 6700 nM) | level (log10) ([5]; 20000 nM) | level (log10) ([5]; 60000 nM) | level (log10) ([6]; 6700 nM) | level (log10) ([6]; 20000 nM) | level (log10) ([6]; 60000 nM) | level (log10) ([7]; 6700 nM) | level (log10) ([7]; 20000 nM) | level (log10) ([7]; 60000 nM)
BE3C:MMP-1 | 0.002 ± 0.0014 | -0.0035 ± 0.0035 | 0.038 ± 0.057 | -0.0035 ± 0.011 | -0.015 ± 0.0085 | -0.013 ± 0.023 | 0.0365 ± 0.08 | 0.0005 ± 0.03 | 0.006 ± 0.02 | 0.022 ± 0.05 | -0.0115 ± 0.016 | 0 ± 0.0014 | 0.042 ± 0.013 | 0.044 ± 0.0099 | 0.051 ± 0.038 | 0.094 ± 0.061 | 0.034 ± 0.018 | 0.113 ± 0.014 | 0.283 ± 0.041
BE3C:MMP-9 | -0.0055 ± 0.005 | -0.0045 ± 0.018 | 0.0135 ± 0.0092 | -0.0435 ± 0.018 | -0.027 ± 0.0071 | -0.016 ± 0.0042 | -0.011 ± 0.024 | 0.0035 ± 0.032 | 0.014 ± 0.028 | 0.031 ± 0.045 | -0.0045 ± 0.037 | -0.0065 ± 0.019 | 0.0155 ± 0.021 | 0.012 ± 0.027 | -0.0165 ± 0.021 | -0.003 ± 0.035 | -0.0145 ± 0.0064 | 0.047 ± 0.0042 | 0.0375 ± 0.021
BE3C:PAI-I | -0.0075 ± 0.0035 | -0.014 ± 0.0085 | -0.008 ± 0.017 | 0.0495 ± 0.025 | -0.0355 ± 0.0092 | -0.018 | 0.0055 ± 0.025 | -0.026 ± 0.02 | -0.002 ± 0.031 | 0.011 | -0.0235 ± 0.0092 | -0.007 ± 0.0014 | 0.026 ± 0.011 | -0.0365 ± 0.019 | -0.0745 ± 0.016 | -0.057 ± 0.0099 | 0.014 ± 0.023 | 0.0045 ± 0.005 | 0.0255 ± 0.016
BE3C:SRB | 0.0015 ± 0.00071 | -0.007 ± 0.0085 | 0.0005 ± 0.0078 | -0.006 ± 0.0028 | -0.0045 ± 0.0021 | -0.0045 ± 0.0064 | 0.006 ± 0.018 | -0.0065 ± 0.0035 | -0.0035 ± 0.005 | 0.0015 ± 0.016 | -0.0015 ± 0.005 | -0.0055 ± 0.0021 | 0.002 ± 0.011 | -0.006 ± 0.0028 | -0.008 ± 0.0042 | -0.0145 ± 0.0035 | -0.0045 ± 0.005 | -0.003 | -0.0145 ± 0.0078
BE3C:tPA | 0.012 ± 0.013 | -0.0315 ± 0.03 | 0.011 ± 0.05 | -0.077 ± 0.0099 | -0.034 ± 0.02 | -0.051 ± 0.0042 | -0.002 ± 0.04 | -0.0075 ± 0.00071 | -0.013 ± 0.038 | 0.015 ± 0.021 | 0.0055 ± 0.012 | -0.0145 ± 0.019 | -0.0075 ± 0.0021 | -0.002 ± 0.044 | -0.032 ± 0.054 | -0.013 ± 0.034 | -0.029 ± 0.045 | -0.015 ± 0.02 | -0.07 ± 0.0085
BE3C:uPA | -0.001 ± 0.014 | 0 ± 0.0057 | -0.0035 ± 0.0092 | -0.02 ± 0.014 | -0.0175 ± 0.005 | -0.008 ± 0.0028 | -0.001 ± 0.017 | 0.0035 ± 0.011 | -0.0115 ± 0.00071 | 0.0015 ± 0.0021 | -0.0055 ± 0.0021 | -0.005 ± 0.013 | 0.001 ± 0.0014 | 0.01 ± 0.018 | -0.0155 ± 0.019 | -0.001 ± 0.0057 | 0.002 ± 0.0071 | -0.002 ± 0.0042 | 0.018 ± 0.0085
CASM3C:CCL2/MCP-1 | -0.002 ± 0.0057 | 0.0015 ± 0.011 | 0.0125 ± 0.036 | -0.0195 ± 0.0064 | -0.0085 ± 0.0021 | -0.012 ± 0.016 | 0.0085 ± 0.032 | -0.004 ± 0.011 | -0.025 ± 0.0099 | 0.0285 ± 0.059 | -0.015 ± 0.0071 | -0.0125 ± 0.0078 | -0.034 ± 0.034 | -0.0075 ± 0.0035 | -0.02 ± 0.0057 | 0.011 ± 0.025 | 0.008 ± 0.017 | -0.004 ± 0.0014 | 0.051 ± 0.033
CASM3C:CD87/uPAR | 0 ± 0.027 | 0.0025 ± 0.0078 | -0.0165 ± 0.037 | -0.0235 ± 0.013 | -0.035 ± 0.021 | -0.027 ± 0.011 | -0.004 ± 0.0014 | -0.009 ± 0.028 | -0.0135 ± 0.029 | -0.0045 ± 0.025 | -0.004 ± 0.0071 | -0.0245 ± 0.00071 | -0.026 ± 0.035 | -0.03 ± 0.024 | -0.02 ± 0.016 | -0.004 ± 0.0099 | 0.003 ± 0.03 | 0.008 ± 0.0028 | 0.0045 ± 0.023
